Results as given in patent US6248694A, “Plant growth regulator compositions” (BASF Aktiengesellschaft, priority 1999, dated 2001).

What was measured:
[1] = Hygroscopic nature, observation in words; format: physicochemical; settings: solid dried at 50° C. under reduced pressure
[2] = pH in water 1 wt. % concentration; format: physicochemical; settings: 1 wt. % in water
Excerpt: 5) pH in water 1 wt. % concentration 6.78

[3] = Hygroscopicity (relative water uptake at 50 and 60% relative humidity in air); format: physicochemical
Protocol: 4) Hygroscopicity of compound 1.1 in comparison to mepiquat chloride:
Both compounds were dried to a constant dry weight in vacuum at 40° C. 48 hours. Afterwards approx. 1 g samples (two series of 3 samples each and average values) were stored under 50 and 60% relative humidity in air for 2 and/or 4 weeks. The following results in relative water uptake (wt. % w/w) were found: […]

[4] = Corrosion trial, test series 1 (DIN No. 52168, modified steel plates, 14 days)
Protocol: (§1) Comparison of (A) mepiquat chloride, with (B) a mixture of mepiquat chloride with disodium octaborate tetrahydrate (Solubor®), and (C) mepiquat pentaborate (compound 1.9) of example 13.
(§2) The tests of this example were conducted according to the method of DIN (Deutsche Industrie Norm) No. 52168, part 1 of November 1981, but using modified steel plates.
(§3) The corrosion tests were conducted on the three different formulations prepared as set forth below. Each formulation was tested with the different steel types set forth below.
(§4) The first formulation, referred to as "mepiquat chloride" in the tables below, was an 8.33% mepiquat chloride aqueous solution (by weight) prepared by diluting a 600 g/l mepiquat chloride preconcentrate. The second formulation, referred to as "mepiquat chloride plus borate salt" in the tables below, was prepared by adding 15 wt. % disodium octaborate tetrahydrate to the same 8.33% aqueous solution of mepiquat chloride as was used in the first formulation.
(§5) The third formulation, referred to as "mepiquat pentaborate"--in the tables below, was prepared from compound 1.9, example 13 by diluting with water to form a 12% mepiquat pentaborate (wt. %) aqueous solution.
(§6) All three abovementioned formulations contained equal amounts of the mepiquat cation.
(§7) One-half liter quantities of each formulation were placed in polyethylene plastic containers (10 cm×10 cm×12 cm (height)). Into each of the containers, two series of steel plate types--12×5 cm^2 (0.2 cm thickness) were inserted.
(§8) In modification of the mentioned DIN, the steel plates were prepared with an additional oxyacetylene torched area, approximately 5 to 7 mm large, horizontally in the middle of the steel plates.
(§9) The torched areas were placed below the solution's surface. (The aim of this modification of the test was to simulate a more serious corrosion and endangering situation.)
(§10) The position of the plates were such that approximately 1/3 of the plates were in air contact. After 14 days the steel plates were examined, washed and cleaned, dried and weighed according to the DIN method above.

[5] = Corrosion trial, test series 2 (DIN No. 52168, modified steel plates, 14 days)
Protocol: as §1, §2, §3, §4, §5, §6, §7, §8, §9, §10

[6] = 4 weeks at 50% relative humidity in air
[7] = 4 weeks at 60% relative humidity in air
[8] = 50% relative humidity in air, 2 weeks
[9] = 60% relative humidity in air, 2 weeks

## C[N+]1(C)CCCCC1 [N,N-dimethylpiperidiniumbicarbonate]
[1]
  Hygroscopic nature of isolated product: extremely hygroscopic

## [Dimethylpiperidinium]^+ [B8 (NH4)0.3 O12.7 ]^-×4 H2 O [Compound 1.5]
[2]
  pH in water 1 wt. % concentration: 6.8
[3]; [6]
  Hygroscopicity: water uptake: 0.4 wt. %
[3]; [7]
  Hygroscopicity: water uptake: 0.6 wt. %

## C[N+]1(C)CCCCC1.O.O.O.O.O.O.OB(O)O.OB(O)O.OB(O)O.OB(O)O.OB(O)O.OB(O)O.OB(O)O.OB(O)O.OB(O)O.[Na+].[O-]B([O-])O [Compound 1.1, N,N-Dimethylpiperidinium sodium decaborate hexahydrate]
[2]
  pH in water 1 wt. % concentration: 6.78
[3]; [8]
  Relative water uptake: 4.1 wt. % w/w
[3]; [9]
  Relative water uptake: 7.8 wt. % w/w

## [Dimethylpiperidinium]^+ [B6.4 Na0.3 O10.3 ]^-×4 H2 O [Compound 1.7]
[3]; [6]
  Hygroscopicity: water uptake: 1.9 wt. %
[3]; [7]
  Hygroscopicity: water uptake: 4.1 wt. %

## C[N+]1(C)CCCCC1.[Cl-] [mepiquat chloride, N,N-dimethylpiperidinium chloride, reference compound]
[3]; [8]
  Relative water uptake: 52 wt. % w/w
[3]; 50% relative humidity in air, 4 weeks
  Relative water uptake: 58 wt. % w/w
[3]; [9]
  Relative water uptake: 71 wt. % w/w
[3]; 60% relative humidity in air, 4 weeks
  Relative water uptake: 78 wt. % w/w
[4]; ST 37, end
  pH values, end: 7.96
[4]; ST 37, initial
  pH values, initial: 7.67
[4]; ST 37, test series 1
  appearance of the resulting formulations: yellow to orange solution, cloudy, sedimentations
[5]; ST 13, end
  pH values, end: 8.34
[5]; ST 13, initial
  pH values, initial: 7.67
[5]; ST 13, test series 2
  appearance of the resulting formulations: yellow to orange solution, cloudy, sedimentations

## [Dimethylpiperidinium]2^2+ [B18 Na2 O29 ]^2-×8 H2 O [Compound 1.2]
[2]
  pH in water 1 wt. % concentration: 7.4
[3]; [6]
  Hygroscopicity: water uptake: 5.2 wt. %
[3]; [7]
  Hygroscopicity: water uptake: 7.0 wt. %

## [Dimethylpiperidinium]2^2+ [B12 Na4 O21 ]^2-×20 H2 O [Compound 1.3]
[3]; [6]
  Hygroscopicity: water uptake: 13.6 wt. %
[3]; [7]
  Hygroscopicity: water uptake: 28.8 wt. %

## [Dimethylpiperidinium]^+ [B9 Na0.9 O14.5 ]^-×6H2 O [Compound 1.6]
[2]
  pH in water 1 wt. % concentration: 7.1
[3]; [6]
  Hygroscopicity: water uptake: 2.7 wt. %
[3]; [7]
  Hygroscopicity: water uptake: 9.0 wt. %
